Laboratory results from patent US11535599B2, “Benzisoxazole derivative” (Sumitomo Pharma Co., Ltd., priority 2020, dated 2022).

Experiments:
[1] = test system: reserpine-induced Parkinson's disease model mouse; assay: Potentiating effect of levodopa-induced hyperactivity in reserpine-induced Parkinson's disease model mouse; assay type: in vivo; details: Examples 12.5 or 25 mg/kg oral; rasagiline 3 or 10 mg/kg; with levodopa 200 mg/kg i.p.
Description: Dopamine-depleted mice due to reserpine treatment are model mice of akinesia symptoms in Parkinson's disease, said symptoms are relieved with levodopa (L-DOPA). The effect of the present compounds for potentiating the levodopa's effect was tested.
In the present test, male Crl: CD1 (ICR) mice (CHARLES RIVER LABORATORIES JAPAN, INC.) were used. 20-24 hours before starting the movement measurement, reserpine (3 mg/kg) was intraperitoneally administered to the mouse. One hour before starting the movement measurement, the present compound (12-.5 mg/kg or 25 mg/kg of. Examples 1, 2, 3, 4, and 5) was orally administered to the mouse. Shortly before starting the movement measurement, levodopa (200 mg/kg) with benserazide whose amount was ¼ of levodopa in free form was intraperitoneally administered to the mouse. The movement measurement was carried out for 90 minutes, and each total movement was compared.

[2] = test system: unilateral lesion model of nigrostriatal dopamine neuron induced with 6-OHDA; assay: Anti-tremor effect in 6-OHDA unilateral lesion model; assay type: in vivo, rat; details: 3 mg/kg oral, counted 10 minutes one hour later
Excerpt: A unilateral lesion model of nigrostriatal dopamine neuron induced with 6-OHDA is broadly used for evaluating the drug efficacy for treating Parkinson's disease, as shown in Test 3. In addition, the present model is known to present with jaw tremor which corresponds to the tremor frequency in a patient of Parkinson's disease, thus which is also expected to be a tremor model in Parkinson's disease. With the present model, the effect of the present compound for inhibiting the tremor in Parkinson's disease was evaluated. According to the procedure described in Test 3, a unilateral lesion model of nigrostriatal dopamine neuron was prepared. The compound of Example 13 (3 mg/kg) was orally administered to the model rat. One hour later, the number of tremulous jaw movements was counted for 10 minutes.

cerebellar Purkinje cell = assay: Effect for inhibiting neuronal firing in mouse brain slice (patch-clamp); assay type: cell-based; details: 500 μmol/L
Description: (§1) The action of the present compound for regulating the voluntary firing frequency in subthalamic nucleus neuron and cerebellar Purkinje cell was measured by patch-clamp method in mouse brain slice. […] As stimulus protocol, a current of +200 pA or +400 pA was added thereto for 400 milliseconds and the raised action potential was recorded. […] The stimulus-controlled and digitized action potential was recorded with Clampex software (Version 10.2) (all instruments are from Molecular Device Corporation, Union City, Calif., USA). […] In the measurement after adding the compound of Example 13, the action potential was recorded after the record solution containing the compound of Example 13 was perfused for more than 10 minutes. In the analyses, the percentage of the spike firing frequency (Hz) for the current stimulation after adding the compound of Example 13, per the spike firing frequency (Hz) for the current stimulation before adding the compound of Example 13, was calculated, which was defined as a change rate of spike firing frequency in each cell.

[3] = test system: subthalamic nucleus neuron; assay: as above; assay type: cell-based; details: 500 μmol/L
Description: as §1

mouse elevated plus maze = assay: Anxiolytic-like action, mouse elevated plus maze; assay type: in vivo; details: Example 13 at 10 mg/kg or more oral; diazepam 3 mg/kg oral
Description: In Parkinson's disease, psychiatric symptom (e.g. depression, anxiety) is known as one of its non-motor symptoms. The anxiolytic-like action of the present invention was evaluated with mouse elevated plus maze. The present test is broadly used as a method for evaluating the anxiolytic-like action of agents.
In the present test, male Crl: CD1 (ICR) mice (CHARLES RIVER LABORATORIES JAPAN, INC.) were used. One hour before the test was started, the solvent, the compound of Example 13 (3 mg/kg, 10 mg/kg, 30 mg/kg, or 100 mg/kg), or diazepam (3 mg/kg) which is a positive control was orally administered to the mouse. The mouse was put into a center platform in which the illuminance was adjusted to 80-100 Lux level. The head of the mouse was set toward the closed arm, and then the test was started. The mouse was allowed to explore freely for 5 minutes. When ⅓ of the mouse's body entered the arm, the behavior was counted as arm entry. And, the time spent in the open arm was also measured with a stopwatch. The ratio of the count of the open arm entry per the count of the all arm entry, and the ratio of the time spent in the open arm per the total exploration time (5 minutes) were calculated. […] Thus, the ratio of the count of the open arm entry per the count of the all arm entry, and the ratio of the time spent in the open arm per the total exploration time tend to be small values. When these ratios in the drug administration group are higher than those of the solvent administration group, it can be judged that the drug has anxiolytic-like action.

Structure (SMILES): CC(c1noc2ccccc12)S(N)(=O)=O (stereo not drawn) [Example 1, 1-(Benzo[d]isoxazol-3-yl)ethane-1-sulfonamide]
- levodopa-induced hyperactivity (total movement, 90 minutes) [1]: significantly-potentiating effect of levodopa-induced hyperactivity

Structure (SMILES): C[C@H](c1noc2ccccc12)S(N)(=O)=O [Example 13, (1R)-1-(1,2-benzoxazol-3-yl)ethane-1-sulfonamide]
- number of tremulous jaw movements [2]: significantly decreased the number of tremulous jaw movements per unit time
- spike firing frequency in cerebellar Purkinje cell (cerebellar Purkinje cell): significantly inhibited the spike firing frequency
- spike firing frequency in subthalamic nucleus neuron [3]: significantly inhibited the spike firing frequency
- count of the open arm entry (mouse elevated plus maze): increase significantly
- time spent in the open arm (mouse elevated plus maze): increase significantly
